The source of these data is US20150030667A1, “COMPOSITIONS AND METHODS FOR TREATING U[…]” (priority 2013, published 2015).

In the data set the test system is bladder (detrusor) contractility of BoNT treated rats. The note with it: rat, in vivo.

Turning to `CN(C)C(=O)Oc1cccc([N+](C)(C)C)c1` [neostigmine], the amplitude of contraction result is “raised”, the baseline pressure result was “without affecting baseline pressure”, the contractility entry is on record as “improves contractility” and the duration of contraction entry is “significant increase”. For the same compound, the “duration of voiding contraction” value is “increase” and the “interval between bladder contractions” value is recorded as “decrease”.
